Experimental data from PMC10982093, “Identifying and characterising promising small molecule inhibitors of kinesin spindle protein using ligand-based virtual screening, molecular docking, molecular dynamics and MM‑GBSA calculations” (Journal of Computer-Aided Molecular Design, 2024).

Key:
Eg5 ATPase = biological target: T1, Eg5 ATPase (Homo sapiens, UniProt P52732); test: Microtubule-activated Eg5 ATPase inhibition assay (Kinesin ELISA kit BK060); format: biochemical; conditions: for inhibition at 10 µM: mean of 3 replicates
T1 construct: purchased Cytoskeleton, Inc BK060
T1 sequence (P52732 1-1056): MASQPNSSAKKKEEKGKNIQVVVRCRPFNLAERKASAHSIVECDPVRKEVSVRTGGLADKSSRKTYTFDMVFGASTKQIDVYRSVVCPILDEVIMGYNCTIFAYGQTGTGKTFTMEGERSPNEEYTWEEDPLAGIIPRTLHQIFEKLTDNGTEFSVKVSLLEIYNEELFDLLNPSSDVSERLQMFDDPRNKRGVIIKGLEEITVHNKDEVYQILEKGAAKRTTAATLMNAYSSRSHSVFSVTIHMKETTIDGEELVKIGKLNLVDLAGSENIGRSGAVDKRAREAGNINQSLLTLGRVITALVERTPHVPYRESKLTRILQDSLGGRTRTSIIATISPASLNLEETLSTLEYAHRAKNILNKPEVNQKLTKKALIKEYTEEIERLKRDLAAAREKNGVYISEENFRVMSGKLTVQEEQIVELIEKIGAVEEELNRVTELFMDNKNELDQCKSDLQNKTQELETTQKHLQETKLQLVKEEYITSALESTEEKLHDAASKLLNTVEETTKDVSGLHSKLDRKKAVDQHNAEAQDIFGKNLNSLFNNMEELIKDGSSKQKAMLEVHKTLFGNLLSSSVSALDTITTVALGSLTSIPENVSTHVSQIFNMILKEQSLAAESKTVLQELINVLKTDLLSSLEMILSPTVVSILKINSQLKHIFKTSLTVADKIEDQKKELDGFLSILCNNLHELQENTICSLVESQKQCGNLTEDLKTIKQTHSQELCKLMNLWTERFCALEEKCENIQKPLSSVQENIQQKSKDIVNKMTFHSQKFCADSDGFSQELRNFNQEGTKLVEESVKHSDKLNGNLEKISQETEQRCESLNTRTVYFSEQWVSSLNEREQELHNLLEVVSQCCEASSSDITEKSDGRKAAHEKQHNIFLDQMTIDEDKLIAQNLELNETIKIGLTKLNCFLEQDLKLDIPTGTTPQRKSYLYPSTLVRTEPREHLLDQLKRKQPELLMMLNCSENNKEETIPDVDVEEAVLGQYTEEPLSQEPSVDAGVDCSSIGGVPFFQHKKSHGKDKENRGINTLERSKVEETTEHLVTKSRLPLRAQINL
Description: Microtubule (MT)-activated enzymatic Eg5-ATPase activity were measured in order to evaluate the inhibitory activity of the selected compounds at […]. The MT—ATPase activity was analysed using Kinesin ELISA kit (BK060) (Cytoskeleton, Inc) and Monastrol was used as a control. The procedures were applied according to the manufacturer’s instructions. The IC50 of compound 5 which were required for inhibiting 50% of Eg5 ATPase activity was measured using ELISA kit (BK060) (Cytoskeleton, Inc, Denver, CO) according to the manufacturer’s instructions.
The Eg5 ATPase activity of the six hits at 10 µM was investigated in comparison to Monastrol (10 µM), as it acted as a positive control compound. […] Similarly compounds 1, 3 and 4 caused 40, 35 and 30% inhibition activity respectively.

Hela cells = test: Immunofluorescence assay, inhibition of mitotic spindle formation; format: cell-based; conditions: 10 µM, 24 h, tubulin immunofluorescence
Description: […] Monastrol was used as a positive control, while 0.1% DMSO was used as a negative control. The cells were rinsed with PBS, fixed with 3.7% paraformaldehyde, and permeabilized with 0.1% Triton X-100. The cells were blocked with 1% BSA in PBS for 1 h prior to incubation with anti-β-tubulin mouse monoclonal antibody (#86,298, Cell Signaling, San Francisco, CA, USA) overnight at 4 °C. The cells were washed with PBS for 1 h in the dark, and then incubated with Alexa Fluor® 488 secondary antibodies (Abcam).
Further investigation of compound 5 was performed, which consisted of an immunofluorescence assay that was used to analyse the mechanism of compound 5 on the organisation of the microtubules into mitotic spindles during divisions of the cells.

Eg5 protein = biological target: Eg5 protein; parameters: method as in PMID 35251692; conditions: read-out: Ki against Eg5 protein; cited from earlier work

inhibition at 10 µM (Eg5 ATPase) [%]	Structure (SMILES)	further results
50	Cn1c(=O)[nH]c(=O)c2c1nc(NCCCn1ccnc1)n2Cc1ccc2ccccc2c1 [Compound 5, 8-(3-(1H-imidazol-1-yl)propylamino)-3-methyl-7-((naphthalen-3-yl)methyl)-1H-purine-2,6(3H,7H)-dione]	IC50 (Eg5 ATPase; read-out: IC50 against Eg5 ATPase): 2370 ± 150 nM; Mitotic spindle morphology (Hela cells): monopolar spindle profiles
40	COc1ccc(CNc2nc3cc(C(=O)O)ccc3n2Cc2ccccc2C(F)(F)F)cc1 [Compound 1, 1-(2-(trifluoromethyl)benzyl)-2-(4-methoxybenzylamino)-1H-benzo[d]imidazole-5-carboxylic acid]	
~25	CS(=O)(=O)c1ccc(CNc2nc3cc(C(=O)O)ccc3n2Cc2ccccc2C(F)(F)F)cc1 [Compound 6, 1-(2-(trifluoromethyl)benzyl)-2-(4-(methylsulfonyl)benzylamino)-1H-benzo[d]imidazole-5-carboxylic acid]	

The remaining lines, values behind:

Structure (SMILES)	inhibition at 10 µM (Eg5 ATPase) [%]	further results
CCOC(=O)C1=C(C)NC(=S)NC1c1cccc(O)c1 (stereo not drawn) [Monastrol, reference compound]	60	Mitotic spindle morphology (Hela cells): monopolar spindle profiles
O=C1CCc2cc(-c3ccc(C(F)(F)F)cc3)ccc2N1 [GSK-1]		Ki (Eg5 protein): 1.8 nM
Cc1ccc(O)c(C(=O)c2cnc3c(c2)c(-c2ccc(F)cc2)c(C#N)c(=O)n3C)c1 [Compound 4, 4-(4-fluorophenyl)-6-(2-hydroxy-5-methylbenzoyl)-1-methyl-2-oxo-1,8-naphthyridine-3-carbonitrile]	30	
COc1cc2nc(-c3cc(-c4ccccc4Cl)nc4ccccc34)[nH]c2cc1OC [Compound 3, 2-(2-chlorophenyl)-4-(5,6-dimethoxy-1H-benzo[d]imidazol-2-yl)quinoline]	35	
NC(=O)Nc1ccc(-c2ccc(C(F)(F)F)cc2)cc1F [GSK-2]		Ki (Eg5 protein): 8.8 nM
COc1ccc(C(=O)N2c3ccc(OC(=O)c4ccco4)cc3C(C)=CC2(C)C)cc1 [Compound 2, 1-(4-methoxybenzoyl)-2,2,4-trimethyl-1,2-dihydroquinolin-6-yl furan-2-carboxylate]	~25	
